Test results: article PMC3784351 (Cancer chemotherapy and pharmacology, 2013)

T1: proton-coupled folate transporter (PCFT) (Homo sapiens, UniProt Q96NT5)
T1 sequence (Q96NT5 1-459): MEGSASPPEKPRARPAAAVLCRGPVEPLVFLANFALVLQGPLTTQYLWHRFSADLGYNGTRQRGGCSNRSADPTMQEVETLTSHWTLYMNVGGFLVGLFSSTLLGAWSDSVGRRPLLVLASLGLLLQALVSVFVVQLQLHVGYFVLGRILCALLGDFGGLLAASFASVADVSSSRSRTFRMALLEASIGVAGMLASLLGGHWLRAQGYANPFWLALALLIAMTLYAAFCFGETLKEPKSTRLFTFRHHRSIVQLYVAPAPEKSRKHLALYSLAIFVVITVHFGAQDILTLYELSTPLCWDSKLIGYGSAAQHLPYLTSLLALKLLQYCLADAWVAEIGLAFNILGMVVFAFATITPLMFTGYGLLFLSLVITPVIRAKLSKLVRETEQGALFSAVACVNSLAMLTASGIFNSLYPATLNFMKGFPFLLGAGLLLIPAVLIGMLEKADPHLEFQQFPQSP

B1: reduced folate carrier (RFC) (Homo sapiens) (protein)
chain: MVPSSPAVEKQVPVEPGPDPELRSWRHLVCYLCFYGFMAQIRPGESFITPYLLGPDKNFTREQVTNEITPVLSYSYLAVLVPVFLLTDYLRYTPVLLLQGLSFVSVWLLLLLGHSVAHMQLMELFYSVTMAARIAYSSYIFSLVRPARYQRVAGYSRAAVLLGVFTSSVLGQLLVTVGRVSFSTLNYISLAFLTFSVVLALFLKRPKRSLFFNRDDRGRCETSASELERMNPGPGGKLGHALRVACGDSVLARMLRELGDSLRRPQLRLWSLWWVFNSAGYYLVVYYVHILWNEVDPTTNSARVYNGAADAASTLLGAITSFAAGFVKIRWARWSKLLIAGVTATQAGLVFLLAHTRHPSSIWLCYAAFVLFRGSYQFLVPIATFQIASSLSKELCALVFGVNTFFATIVKTIITFIVSDVRGLGLPVRKQFQLYSVYFLILSIIYFLGAMLDGLRHCQRGHHPRQPPAQGLRSAAEEKAAQALSVQDKGLGGLQPAQSPPLSPEDSLGAVGPASLEQRQSDPYLAQAPAPQAAEFLSPVTTPSPCTLCSAQASGPEAADETCPQLAVHPPGVSKLGLQCLPSDGVQNVNQ

How the values were obtained:
[1] = target: T1, proton-coupled folate transporter (PCFT); assay: tritiated influx in HeLa R1-PCFT versus R1-11 cells; type: cell-based
[2] = substrate: C#CCC(Cc1cnc2nc(N)nc(N)c2n1)c1ccc(C(=O)N[C@@H](CCC(=O)O)C(=O)O)cc1; assay: cells, lysate or membranes; conditions: pH 7.4

Molecule	tritiated influx in HeLa R1-PCFT versus R1-11 cells (poor substrate) [1]	Km [2]
C#CCC(Cc1cnc2nc(N)nc(N)c2n1)c1ccc(C(=O)N[C@@H](CCC(=O)O)C(=O)O)cc1 (some centres unmarked) [pralatrexate]	among the antifolates tested, pralatrexate was the poorest substrate for PCFT	–
B1	–	0.52 ± 0.2 µM
